The record followed here is US9060514B2, “Efficacy-enhancing agent composition for agricultural chemicals” (priority 2010, dated 2015).

A short description of this data set: Flash point of solvents. Format: physicochemical. The settings on record: measured with Cleveland open cup tester or value from 15509 chemical products. From the text: A flash point was a measured value (with a Cleveland open cup flashpoint tester or a value described in “15509 no Kagaku Seihin (15509 chemical products)” (2009, Jan., 27, Chemical Daily Co., Ltd.). Among solvents used in Comparative Examples, for those having a structure corresponding to the formula (C1), meanings of items in the formula (C1) were shown for convenience.
Take `CCCCC(CC)CO` (stereo not drawn) [2-ethyl-l-hexanol]: the Flash point was 78 °C.

On to `COCCOCCOC` [Diethylene glycol dimethyl ether], for which the Flash point was found to be 56 °C.

`CCCCC(CC)COCCOCCO` (stereo not drawn) [Diethylene glycol mono2-ethylhexyl ether] yielded a Flash point of 151 °C.

Consider `OCCOCCO` [Diethylene glycol], for which the Flash point was found to be 138 °C.

Compound `CCCCOCCOCCOCCCC` [Diethyleneglycol dibutyl ether] yielded a Flash point of 122 °C.

`C[S+](C)[O-]` [Dimethylsulfoxide] yielded a Flash point of 95 °C.

For the compound `CCOCCOCCO` [Ethyl carbitol], the Flash point was 102 °C.

Regarding `OCCO` [Ethylene glycol], the Flash point came to 120 °C.

With `CC(C)CO` [Isobutanol], the Flash point came out at 28 °C.

On to `CC(C)O` [Isopropanol], for which the Flash point is 12 °C.

`COCCOCCO` [Methyl carbitol] registered a Flash point of 105 °C.

`COCCO` [Methyl cellosolve] displayed a Flash point of 39 °C.

Take `COCC(C)O` (stereo not drawn) [Propylene glycol monomethyl ether]: the Flash point was 32 °C.

Regarding `CC(O)CO` (stereo not drawn) [Propylene glycol], the Flash point came out at 99 °C.

As for `CCCCOCCOCCO` [n-Butyl carbitol], the Flash point stood at 120 °C.
